Active and inactive are the calls of the source. The calls are words filed in the database; no cut-off is given here.
Key:
[1] = target: T1, Protein arginine N-methyltransferase 9 (Homo sapiens) (UniProt Q6P2P2); experiment: Inhibition of human recombinant PRMT9 using biotinylated SF3B2(500 to 519 residues) as substrate and SAM as cosubstrate pre-incubated with compound for 30 mins followed by substrate addition measured after 60 mins by AlphaLISA assay; details: time 90.0 min
T1 sequence (whole entry): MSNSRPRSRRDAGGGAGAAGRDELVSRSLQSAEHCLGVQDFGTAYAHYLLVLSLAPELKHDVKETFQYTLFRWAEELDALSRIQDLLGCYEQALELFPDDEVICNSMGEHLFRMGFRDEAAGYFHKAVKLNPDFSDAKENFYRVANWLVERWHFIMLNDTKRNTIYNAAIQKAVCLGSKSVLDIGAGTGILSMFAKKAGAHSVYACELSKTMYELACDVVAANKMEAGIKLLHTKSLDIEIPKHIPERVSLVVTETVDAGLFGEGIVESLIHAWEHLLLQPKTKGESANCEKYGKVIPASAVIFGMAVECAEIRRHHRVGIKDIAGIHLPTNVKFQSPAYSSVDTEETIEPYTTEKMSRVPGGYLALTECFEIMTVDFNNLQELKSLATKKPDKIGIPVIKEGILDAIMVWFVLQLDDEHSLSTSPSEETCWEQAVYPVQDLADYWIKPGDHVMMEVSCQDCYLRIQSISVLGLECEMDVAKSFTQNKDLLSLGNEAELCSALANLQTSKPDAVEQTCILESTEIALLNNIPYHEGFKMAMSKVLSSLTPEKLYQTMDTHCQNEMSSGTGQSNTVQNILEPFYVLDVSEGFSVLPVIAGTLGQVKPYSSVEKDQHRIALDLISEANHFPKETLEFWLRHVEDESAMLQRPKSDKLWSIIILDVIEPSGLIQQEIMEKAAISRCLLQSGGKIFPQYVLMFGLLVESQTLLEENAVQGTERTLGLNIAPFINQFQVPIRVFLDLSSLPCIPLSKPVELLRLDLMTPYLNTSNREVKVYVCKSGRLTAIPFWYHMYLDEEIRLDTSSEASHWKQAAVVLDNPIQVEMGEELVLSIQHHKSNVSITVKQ

[2] = target: T1, Protein arginine N-methyltransferase 9 (Homo sapiens); experiment: Inhibition of PRMT9 catalysed SF3B2 R508 methylation in human MCF7 cells upto 100 uM measured after 72 hrs by immunoblotting analysis; format: cell-based
[3] = target: T1, Protein arginine N-methyltransferase 9 (Homo sapiens); experiment: Inhibition of PRMT9 catalysed SF3B2 R508 methylation in human MDA-MB-436 cells upto 100 uM measured after 72 hrs by immunoblotting analysis; format: cell-based
Caenorhabditis elegans [4] = experiment: (§1) Inhibition of Caenorhabditis elegans GST-fused PRMT7 expressed in Escherichia coli at 100 uM using Caenorhabditis elegans GST-SFTB-2 (99 to 248 residues) peptide as substrate and human histone H2B as cosubstrate incubated under 15 degreeC in presence of 3H-SAM by SDS-PAGE based densitometric analysis
[5] = target: T1, Protein arginine N-methyltransferase 9 (Homo sapiens); experiment: Inhibition of human GST-fused PRMT9 expressed in Escherichia coli at 100 uM using human GST-SF3B2 (401 to 550 residues) peptide as substrate and human histone H2B as cosubstrate incubated under 37 degreeC in presence of 3H-SAM by SDS-PAGE based densitometric analysis relative to control
[6] = target: T2, Protein arginine N-methyltransferase 7 (Homo sapiens) (UniProt Q9NVM4); experiment: Inhibition of human GST-fused PRMT7 expressed in Escherichia coli at 100 uM using human GST-SF3B2 (401 to 550 residues) peptide as substrate and human histone H2B as cosubstrate incubated under 15 degreeC in presence of 3H-SAM by SDS-PAGE based densitometric analysis
T2 sequence (whole entry): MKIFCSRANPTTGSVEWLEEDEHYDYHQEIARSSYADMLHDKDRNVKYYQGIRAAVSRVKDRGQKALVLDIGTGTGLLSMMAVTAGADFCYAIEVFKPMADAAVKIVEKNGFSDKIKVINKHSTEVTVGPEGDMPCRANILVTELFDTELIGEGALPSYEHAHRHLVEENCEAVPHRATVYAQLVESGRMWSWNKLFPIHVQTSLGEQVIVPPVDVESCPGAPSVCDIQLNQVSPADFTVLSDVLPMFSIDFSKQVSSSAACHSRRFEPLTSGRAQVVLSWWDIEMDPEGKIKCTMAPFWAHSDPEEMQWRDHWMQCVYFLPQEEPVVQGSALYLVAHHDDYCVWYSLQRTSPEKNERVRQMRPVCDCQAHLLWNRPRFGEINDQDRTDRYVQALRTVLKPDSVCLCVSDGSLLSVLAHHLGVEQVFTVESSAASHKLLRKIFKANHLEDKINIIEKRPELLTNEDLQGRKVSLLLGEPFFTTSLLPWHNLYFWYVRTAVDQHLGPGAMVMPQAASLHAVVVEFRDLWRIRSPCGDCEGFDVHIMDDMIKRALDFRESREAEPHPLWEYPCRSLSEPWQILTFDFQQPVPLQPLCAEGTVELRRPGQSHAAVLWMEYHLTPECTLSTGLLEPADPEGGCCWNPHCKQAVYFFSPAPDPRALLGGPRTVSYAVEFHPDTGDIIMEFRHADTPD

[7] = Selectivity ratio of human GST-fused PRMT9 to Caenorhabditis elegans GST-fused PRMT9
[8] = target: T1, Protein arginine N-methyltransferase 9 (Homo sapiens); experiment: Inhibition of human GST-fused PRMT9 expressed in Escherichia coli using human GST-SF3B2 (401 to 550 residues) peptide as substrate and human histone H2B as cosubstrate under 37 degreeC in presence of 3H-SAM by SDS-PAGE based densitometric analysis; details: dose 5-100 µM
Caenorhabditis elegans [9] = experiment: as §1, with “PRMT9” for “PRMT7”, “GST-SFTB2” for “GST-SFTB-2”, “25” for “15”, “analysis relative to control” for “analysis”
Caenorhabditis elegans [10] = experiment: as §1, with “250” for “100”, “analysis relative to control” for “analysis”
[11] = target: T1, Protein arginine N-methyltransferase 9 (Homo sapiens); experiment: Inhibition of human GST-fused PRMT9 expressed in Escherichia coli at less than 5 uM using human GST-SF3B2 (401 to 550 residues) peptide as substrate and human histone H2B as cosubstrate incubated under 37 degreeC in presence of 3H-SAM by SDS-PAGE based densitometric analysis relative to control
Caenorhabditis elegans [12] = experiment: as §1, with “PRMT9” for “PRMT7”, “25 to 50” for “100”, “GST-SFTB2” for “GST-SFTB-2”, “25” for “15”, “analysis relative to control” for “analysis”; details: dose 25-50 µM
[13] = target: T1, Protein arginine N-methyltransferase 9 (Homo sapiens); experiment: Inhibition of human GST-fused PRMT9 expressed in Escherichia coli at 100 uM using human GST-SF3B2 (401 to 550 residues) peptide as substrate and human histone H2B as cosubstrate incubated under 37 degreeC in presence of 3H-SAM by SDS-PAGE based densitometric analysis

COC(=O)c1cc(O)c2cc(NC(=O)Nc3ccc4cc(C(=O)OC)cc(O)c4c3)ccc2c1
inhibition [1]: inactive

O=C(CC(=O)Nc1ccc2[nH]cc(C(=O)O)c2c1)Nc1ccc2[nH]cc(C(=O)O)c2c1
inhibition [1]: inactive

CCOC(=O)c1cc2cc(NC(=O)CNC(=O)Nc3ccc([N+](=O)[O-])cc3)ccc2[nH]1
inhibition [1]: inactive

COC(=O)c1cc(O)c2cc(NC(=O)NCCCCCCCNC(=N)NC[C@H]3O[C@@H](n4cnc5c(N)ncnc54)[C@H](O)[C@@H]3O)ccc2c1
inhibition [2]: inactive
inhibition [3]: inactive

COC(=O)c1cc(O)c2cc(NC(=O)NCCCCCNC(=N)NC[C@H]3O[C@@H](n4cnc5c(N)ncnc54)[C@H](O)[C@@H]3O)ccc2c1
inhibition (Caenorhabditis elegans [4]): inactive
inhibition [5]: 100%
inhibition [2]: inactive
inhibition [6]: Active
Selectivity ratio [7]: 5
inhibition [8]: Dose-Dependent Effect
inhibition [3]: inactive
inhibition (Caenorhabditis elegans [9]): 100%

COC(=O)c1cc(O)c2cc(NC(=O)NCCCCNC(=N)NCC[C@H]3O[C@@H](n4cnc5c(N)ncnc54)[C@H](O)[C@@H]3O)ccc2c1
inhibition [2]: inactive
inhibition [3]: inactive

O=C(Nc1ccc2cc(C(=O)O)cc(O)c2c1)Nc1ccc2cc(C(=O)O)cc(O)c2c1
inhibition [1]: inactive

COC(=O)c1cc(O)c2cc(NC(=O)NCCCNC(=N)NC[C@H]3O[C@@H](n4cnc5c(N)ncnc54)[C@H](O)[C@@H]3O)ccc2c1
inhibition (Caenorhabditis elegans [10]): 50%
inhibition (Caenorhabditis elegans [4]): inactive
inhibition [5]: 100%
inhibition [2]: inactive
inhibition [8]: Dose-Dependent Effect
inhibition [3]: inactive
inhibition (Caenorhabditis elegans [9]): 100%
inhibition [11]: 50%
inhibition (Caenorhabditis elegans [12]): 50%

COC(=O)c1cc(O)c2cc(NC(=O)NCCCCNC(=N)NC[C@H]3O[C@@H](n4cnc5c(N)ncnc54)[C@H](O)[C@@H]3O)ccc2c1
inhibition (Caenorhabditis elegans [10]): 50%
inhibition (Caenorhabditis elegans [4]): inactive
inhibition [5]: 100%
inhibition [6]: Active
inhibition [8]: Dose-Dependent Effect
inhibition (Caenorhabditis elegans [9]): 100%
inhibition [11]: 50%
inhibition (Caenorhabditis elegans [12]): 50%

CSC[C@H]1O[C@@H](n2cnc3c(N)ncnc32)[C@H](O)[C@@H]1O
inhibition [13]: Active

O=C(Nc1ccc2[nH]cc(C(=O)O)c2c1)Nc1ccc2[nH]cc(C(=O)O)c2c1
inhibition [1]: inactive

COC(=O)c1c[nH]c2ccc(NC(=O)CC(=O)Nc3ccc4[nH]cc(C(=O)OC)c4c3)cc12
inhibition [1]: inactive

Source: ChEMBL document CHEMBL5365419, “Identification of a Protein Arginine Methyltransferase 7 (PRMT7)/Protein Arginine Methyltransferase 9 (PRMT9) Inhibitor” (J Med Chem, 2023)
